# Results: patent US20240108753A1, “NUCLEIC ACID DELIVERY” (NUNTIUS THERAPEUTICS LIMITED, priority 2021, published 2024)
# Test: Hydrodynamic size, polydispersity index and zeta potential of dendrimer, lipid and mRNA complexes
# Type: physicochemical
# Details: DOTMA/DOPE w/w 10:1 to mRNA; for Hydrodynamic size: dendrimer, lipid and mRNA complexes
# Description: The hydrodynamic size, polydispersity index and Zeta potential was determined for a set of the dendrimers disclosed in Tables 1 and 2.
Polydispersity Index (PDI) (N:P 0.16:1),Zeta Potential (N:P 0.16:1),Polydispersity Index (PDI) (N:P 8:1),Zeta Potential (N:P 8:1),Hydrodynamic size (N:P 0.16:1),Hydrodynamic size (N:P 8:1),Substance
0.131,43 mV,0.37,56 mV,135 nm,78 nm,"(LR)8(KR)4(KRLRL)2KRHC-NH2 [RHCG1-RLRL, 2-R, 3-LR]"
0.154,39 mV,0.214,–,116 nm,83 nm,"(RLR)4(KRLR)2KRHC-NH2 [RHCG1,2-RLR]"
0.173,43 mV,0.396,62 mV,125 nm,70 nm,"(R)8(KR)4(KR)2KRHC-NH2 [RHCG1,2,3-R]"
0.108,41 mV,0.403,56 mV,130 nm,70 nm,"(BR)8(KRB)4(KRX)2KGSC-NH2 [G1-RX, 2-RB, 3-BR]"
0.116,35 mV,0.213,56 mV,117 nm,73 nm,"(LR)8(KRL)4(KRL)2KYM-NH2 [YMG1,2-RL, 3-LR]"
0.219,36 mV,0.429,59 mV,119 nm,83 nm,"(R)8(KRL)4(KRLR)2KRHC-NH2 [RHCG1-RLR, 2-RL, 3-R]"
0.136,41 mV,0.439,59 mV,121 nm,75 nm,"(LR)8(KR)4(KRLR)2KRHC-NH2 [RHCG1-RLR, 2-R, 3-LR]"
0.136,47 mV,0.184,51 mV,125 nm,76 nm,"(LR)8(KRL)4(KRL)2KA-NH2 [KAG1,2-RL, 3-LR]"
0.11,44 mV,0.363,50 mV,134 nm,58 nm,"(LR)8(KRL)4(KRL)2KRHC-NH2 [RHCG1,2-RL,3-LR]"
0.16,42 mV,0.178,52 mV,126 nm,95 nm,"(QR)8(KRT)4(KRY)2KGSC-NH2 [G1-RY, 2-RT, 3-QR]"
0.136,41 mV,0.417,53 mV,132 nm,80 nm,"(RL)8(KRL)4(KLR)2KGSC-NH2 [G1-LR,2,3-RL]"
0.237,35 mV,0.126,49 mV,131 nm,103 nm,"(HK)8(KKH)4(KKL)2KGSC-NH2 [G1-KL, 2-KH, 3-HK]"
0.125,41 mV,0.277,51 mV,142 nm,80 nm,"(WR)8(KRM)4(KRF)2KGSC-NH2 [G1-RF, 2-RM, 3-WR]"
0.264,40 mV,0.581,49 mV,122 nm,250 nm,(LRLR)2KGSC-NH2 [G1-LRLR]
0.137,43 mV,0.257,56 mV,133 nm,68 nm,"(LR)8(KRL)4(KRL)2KRYM-NH2 [RYMG1,2-RL, 3-LR]"
0.135,41 mV,0.409,54 mV,130 nm,100 nm,"(YR)8(KRT)4(KRQ)2KGSC-NH2 [G1-RQ, 2-RT, 3-YR]"
0.22,42 mV,0.241,56 mV,135 nm,74 nm,"(lR)8(KrL)4(kRl)2KGSC-NH2 [G1-Rl, 2-rL, 3-lR]"
0.154,42 mV,0.299,56 mV,130 nm,73 nm,"(RLR)8(KRLR)4(KRLR)2KRHC-NH2 [RHCG1,2,3-RLR]"
0.117,34 mV,0.286,57 mV,124 nm,78 nm,"(LR)8(DabRL)4(DabRL)2DabGSC-NH2 [DabG1,2-RL, 3-LR]"
0.152,39 mV,0.401,55 mV,120 nm,91 nm,"(LR)8(KRL)4(KRL)2KRFW-NH2 [RFWG1,2-RL, 3-LR]"
0.148,43 mV,0.246,53 mV,134 nm,73 nm,"(lr)8(krl)4(krl)2kgsc-NH2 [D-G1,2-rl, 3-lr]"
0.148,43 mV,0.19,56 mV,121 nm,87 nm,"(MR)8(KRC)4(KRC)2KGSC-NH2 [G1-RC, 2-RC, 3-MR]"
0.133,45 mV,0.287,50 mV,130 nm,80 nm,"(LRLR)8(KLRLR)4(KLRLR)2KGSC-NH2 [G1,2,3-LRLR]"
0.181,41 mV,0.189,53 mV,130 nm,92 nm,"(LRLR)4(KLRLR)2KGSC-NH2 [G1,2-LRLR]"
0.16,45 mV,0.251,53 mV,132 nm,74 nm,"(lr)8(Krl)4(Krl)2Kgsc-NH2 [LK-G1,2-rl, 3-lr]"
0.096,45 mV,0.158,53 mV,134 nm,96 nm,"(LR)8(KRL)4(KRE)2KGSC-NH2 [G1-RE, 2-RL, 3-LR]"
0.144,32 mV,0.242,54 mV,137 nm,89 nm,"(RL)8(KLR)4(KLR)2KGSC-NH2 [G1,2-LR,3-RL]"
